What follows are compounds tested against T1, 5-HT transporter (Rattus norvegicus, UniProt P31652) (assay: 5-HT uptake inhibition in rat brain synaptosomes (medulla and pons), [3H]-5-HT).
T1 construct: from tissue; host or cells: rat brain synaptosomes (P2 fraction) from medulla and pons
T1 sequence (P31652 whole entry): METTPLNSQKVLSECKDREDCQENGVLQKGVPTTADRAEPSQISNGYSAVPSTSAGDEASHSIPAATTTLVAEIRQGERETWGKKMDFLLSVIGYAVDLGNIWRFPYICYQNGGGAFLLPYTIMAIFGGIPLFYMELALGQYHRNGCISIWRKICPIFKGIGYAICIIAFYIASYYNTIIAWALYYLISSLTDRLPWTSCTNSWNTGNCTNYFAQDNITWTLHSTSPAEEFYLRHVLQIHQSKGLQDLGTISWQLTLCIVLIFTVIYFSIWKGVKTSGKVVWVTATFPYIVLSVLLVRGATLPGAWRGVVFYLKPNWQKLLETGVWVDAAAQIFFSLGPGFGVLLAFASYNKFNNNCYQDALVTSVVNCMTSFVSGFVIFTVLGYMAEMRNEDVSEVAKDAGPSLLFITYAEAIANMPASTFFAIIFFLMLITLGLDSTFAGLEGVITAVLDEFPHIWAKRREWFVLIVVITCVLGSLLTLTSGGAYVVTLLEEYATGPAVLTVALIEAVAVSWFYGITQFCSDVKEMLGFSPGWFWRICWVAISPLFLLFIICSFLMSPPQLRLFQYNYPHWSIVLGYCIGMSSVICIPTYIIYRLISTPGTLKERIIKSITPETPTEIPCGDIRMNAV
Format: biochemical
From the text: a) Method for Determining Noradrenalin and 5-HT Uptake Inhibition:
Synaptosomes from rat brain regions are freshly isolated for in vitro studies, as described in the publication “The isolation of nerve endings from brain” by E. G. Gray and V. P. Whittaker, J. Anatomy 96, pages 79-88, 1962. The corresponding literature description is hereby introduced as a reference and is deemed to be part of the disclosure.
The tissue (hypothalamus for the determination of noradrenalin uptake inhibition and medulla and pons for the determination of 5-HT uptake inhibition) is homogenised in ice-cooled 0.32 M sucrose (100 mg of tissue/1 mL) in a glass homogeniser with Teflon pestle using five complete up and down strokes at 840 revolutions/minute.
The homogenate is centrifuged at 4° C. for 10 minutes at 1000 g. After subsequent centrifugation at 17000 g for 55 minutes, the synaptosomes (P2 fraction) are obtained, which are resuspended in 0.32 M […] (0.5 mL/100 mg of original weight).
The particular uptake is measured in a 96-well microtitre plate. The volume is 250 μl and the incubation proceeds at room temperature (approx. 20-25° C.) under an O2 atmosphere.
The incubation time is 7.5 minutes for [^3H]-NA and 5 minutes for [^3H]-5-HT. The 96 samples are then filtered through a Unifilter GF/B® microtitre plate (Packard) and washed with 200 mL of incubated buffer using a “Brabdel MPXRI-96T Cell-Harvester”. The Unifilter GF/B plate is dried for 1 hour at 55° C. The plate is then sealed with a Back Seal® (Packard) and 35 μl of scintillation fluid are added per well (Ultima Gold®, Packard). After sealing with a top Seal® (Packard) and establishing an equilibrium (around 5 hours), radioactivity is determined in a “Trilux 1450 Microbeta” (Wallac).
The quantity of protein used in the above determination corresponds to the values known from the literature, as for example described in “Protein measurement with the folin phenol reagent”, Lowry et al., J. Biol. Chem., 193, 265-275, 1951.
A detailed description of the method may additionally be found in the literature, for example in M. Ch. Frink, H.-H. Hennies, W. Engelberger, M. Haurand and B. Wilffert (1996) Arzneim.-Forsch./Drug Res. 46 (III), 11, 1029-1036.
In the case of `COc1ccc(OC)c(CS(=O)(=O)N2CCC3(CC2)CN(Cc2cc(C)cc(C)c2)C(=O)O3)c1` [Example 107, 8-(2,5-dimethoxybenzylsulfonyl)-3-(3,5-dimethylbenzyl)-1-oxa-3,8-diazaspiro[4.5]decan-2-one], the inhibition at 10 µM is reported as 76%.
Work on `COc1ccc(OC)c(NC(=O)N2CCC3(CC2)CN(Cc2ccc4ccccc4c2)C(=O)O3)c1` [Example 55, 3-naphthalen-2-ylmethyl-2-oxo-1-oxa-3,8-diazaspiro[4.5]decane-8-carboxylic acid (2,5-dimethoxyphenyl)amide] yielded an inhibition at 10 µM of 61%.
In the case of `Cc1cc(C)cc(CN2CC3(CCN(S(=O)(=O)Cc4ccccc4Cl)CC3)OC2=O)c1` [Example 116, 8-(2-chlorobenzylsulfonyl)-3-(3,5-dimethylbenzyl)-1-oxa-3,8-diazaspiro[4.5]decan-2-one], the inhibition at 10 µM is reported as 76%.
`Cc1ccc(C(=O)N2CCC3(CC2)CN(Cc2ccc(F)c(F)c2)C(=O)O3)cc1` [Example 136, 3-(3,4-difluorobenzyl)-8-(4-methylbenzoyl)-1-oxa-3,8-diazaspiro[4.5]decan-2-one] was tested, and the inhibition at 10 µM was 67%.
For `CC(=O)OC(C(=O)N1CCC2(CC1)CN(Cc1cc(C)cc(C)c1)C(=O)O2)c1ccccc1` (centres unmarked) [Example 105, acetic acid 2-[3-(3,5-dimethylbenzyl)-2-oxo-1-oxa-3,8-diazaspiro[4.5]dec-8-yl]-2-oxo-1-phenylethyl ester], the inhibition at 10 µM was 74%.
Compound `CC(NC(=O)N1CCC2(CC1)CN(Cc1ccccc1)C(=O)O2)c1ccccc1` (centres unmarked) [Example 43, 3-benzyl-2-oxo-1-oxa-3,8-diazaspiro[4.5]decane-8-carboxylic acid (1-phenylethyl)amide] has an inhibition at 10 µM of 49%.
In the case of `CCOC(=O)c1ccc(NC(=O)N2CCC3(CC2)CN(Cc2ccc4ccccc4c2)C(=O)O3)cc1` [Example 30, 4-[(3-naphthalen-2-ylmethyl-2-oxo-1-oxa-3,8-diazaspiro[4.5]decane-8-carbonyl)amino]benzoic acid ethyl ester], the inhibition at 10 µM is reported as 65%.
`N#Cc1cccc(CN2CC3(CCN(S(=O)(=O)Cc4cccc(Br)c4)CC3)OC2=O)c1` [Example 135, 3-[8-(3-bromobenzylsulfonyl)-2-oxo-1-oxa-3,8-diazaspiro[4.5]dec-3-ylmethyl]benzonitrile] was tested, and the inhibition at 10 µM was 69%.
For `O=C1OC2(CCN(C(=O)c3cc(C(F)(F)F)cc(C(F)(F)F)c3)CC2)CN1Cc1ccc(C(F)(F)F)cc1` [Example 143, 8-(3,5-bis-trifluoromethylbenzoyl)-3-(4-trifluoromethylbenzyl)-1-oxa-3,8-diazaspiro[4.5]decan-2-one], the inhibition at 10 µM was 66%.
`Cc1cc(C)cc(CN2CC3(CCN(C(=O)c4ccccc4Cl)CC3)OC2=O)c1` [Example 108, 8-(2-chlorobenzoyl)-3-(3,5-dimethylbenzyl)-1-oxa-3,8-diazaspiro[4.5]decan-2-one] gave an inhibition at 10 µM of 77%.
With `CC(NC(=S)N1CCC2(CC1)CN(Cc1ccccc1-c1ccccc1)C(=O)O2)c1ccccc1` (centres unmarked) [Example 12, 3-biphenyl-2-ylmethyl-2-oxo-1-oxa-3,8-diazaspiro[4.5]decane-8-carbothioic acid (1-phenylethyl)amide] the inhibition at 10 µM was 60%.
Compound `N#Cc1cccc(CN2CC3(CCN(C(=S)NCc4ccc(Cl)cc4)CC3)OC2=O)c1` [Example 22, 3-(3-cyanobenzyl)-2-oxo-1-oxa-3,8-diazaspiro[4.5]decane-8-carbothioic acid 4-chlorobenzylamide] has an inhibition at 10 µM of 48%.
In the case of `O=C(O)CC1(CC(=O)N2CCC3(CC2)CN(Cc2ccc(F)c(F)c2)C(=O)O3)CCCC1` [Example 72, (1-{2-[3-(3,4-difluorobenzyl)-2-oxo-1-oxa-3,8-diazaspiro[4.5]dec-8-yl]-2-oxoethyl}cyclopentyl)acetic acid], the inhibition at 10 µM is reported as 45%.
`Cc1cc(C)cc(CN2CC3(CCN(C(=O)c4ccc(F)c(Cl)c4)CC3)OC2=O)c1` [Example 131, 8-(3-chloro-4-fluorobenzoyl)-3-(3,5-dimethylbenzyl)-1-oxa-3,8-diazaspiro[4.5]decan-2-one] gave an inhibition at 10 µM of 63%.

— patent US8153795B2, “Substituted 1-oxa-3,8-diazaspiro[4.5]-decan-2-one-compounds and the use thereof for producing drugs” (Gruenenthal GmbH, priority 2005, dated 2012)
